Measured values: patent publication US7138361B2, “Herbicidal heterocycles” (E. I. du Pont de Nemours and Company, priority 2000, dated 2006)

How the values were obtained:
Format in all cases: in vivo
[1] = test system: Surinam grass (Brachiaria decumbens); assay: Test C postemergence
How it was run: (§1)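 Compounds in non-phytotoxic solvent with surfactant applied preemergence to planted seeds and postemergence to plants at 1- to 4-leaf stage (2–18 cm). Kept in greenhouse 12–14 days, then visually rated against controls on a 0 (no effect) to 100 (complete control) scale.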

[2] = test system: bermudagrass (Cynodon dactylon); assay: Test C postemergence
How it was run: as §1

[3] = test system: chickweed (Stellaria media); assay: Test C postemergence
How it was run: as §1

[4] = test system: cocklebur (Xanthium strumarium); assay: Test C postemergence
How it was run: as §1

[5] = test system: common ragweed (Ambrosia elatior); assay: Test C postemergence
How it was run: as §1

[6] = test system: corn (Zea mays); assay: Test C postemergence
How it was run: as §1

[7] = test system: crabgrass (Digitaria sanguinalis); assay: Test C postemergence
How it was run: as §1

[8] = test system: giant foxtail (Setaria faberii); assay: Test C postemergence; conditions: Rate 250 g/ha, scale 0 to 100 (0 no effect, 100 complete control)
How it was run: as §1

[9] = test system: goosegrass (Eleusine indica); assay: Test C postemergence
How it was run: as §1

[10] = test system: johnsongrass (Sorghum halepense); assay: Test C postemergence
How it was run: as §1

[11] = test system: kochia (Kochia scoparia); assay: Test C postemergence
How it was run: as §1

[12] = test system: lambsquarters (Chenopodium album); assay: Test C postemergence
How it was run: as §1

[13] = test system: morningglory (Ipomoea hederacea); assay: Test C postemergence
How it was run: as §1

[14] = test system: pigweed (Amaranthus retroflexus); assay: Test C postemergence
How it was run: as §1

[15] = test system: soybean (Glycine max); assay: Test C postemergence
How it was run: as §1

[16] = test system: velvetleaf (Abutilon theophrasti); assay: Test C postemergence
How it was run: as §1

[17] = test system: woolly cupgrass (Eriochloa villosa); assay: Test C postemergence
How it was run: as §1

[18] = test system: yellow nutsedge (Cyperus esculentus); assay: Test C postemergence
How it was run: as §1

[19] = test system: Surinam grass (Brachiaria decumbens); assay: Test C preemergence
How it was run: as §1

[20] = test system: corn (Zea mays); assay: Test C preemergence
How it was run: as §1

[21] = test system: kochia (Kochia scoparia); assay: Test C preemergence
How it was run: as §1

[22] = test system: morningglory (Ipomoea hederacea); assay: Test C preemergence
How it was run: as §1

[23] = test system: Sunflower; assay: Test C preemergence; conditions: Rate 500 g/ha, visual evaluation after 12 to 14 days
[24] = Rate 125 g/ha, scale 0 to 100, 0 no effect, 100 complete control
[25] = Rate 250 g/ha, scale 0 to 100 (0 no effect, 100 complete control)
[26] = Rate 500 g/ha, scale 0 to 100 (0 no effect, 100 complete control)
[27] = preemergence, Rate 62 g/ha, scale 0 to 100
[28] = preemergence, Rate 500 g/ha, visual evaluation after 12 to 14 days
[29] = preemergence, Rate 250 g/ha, scale 0 to 100, 0 no effect, 100 complete control

COc1cc(N2CCC(n3ccc(C(C)(C)C)n3)C2=O)ccc1Br (stereo not shown) [Compound 141]
Plant response rating, Surinam grass ([1]; Rate 62 g/ha, scale 0 to 100): 20 | Plant response rating, Surinam grass [1, 24]: 40 | Plant response rating, Surinam grass [1, 25]: 60 | Plant response rating, Surinam grass [1, 26]: 60 | Plant response rating, Bermudagrass ([2]; Rate 62 g/ha, scale 0 to 100): 40 | Plant response rating, Bermudagrass [2, 24]: 60 | Plant response rating, Bermudagrass [2, 25]: 60 | Plant response rating, Bermudagrass [2, 26]: 100 | Plant response rating, Chickweed ([3]; Rate 62 g/ha, scale 0 to 100): 90 | Plant response rating, Chickweed [3, 24]: 100 | Plant response rating, Chickweed [3, 25]: 100 | Plant response rating, Chickweed [3, 26]: 100 | Plant response rating, Cocklebur ([4]; Rate 62 g/ha, scale 0 to 100): 70 | Plant response rating, Cocklebur [4, 25]: 70 | Plant response rating, Cocklebur [4, 26]: 100 | Plant response rating, Ragweed, Common ([5]; Rate 62 g/ha, scale 0 to 100): 20 | Plant response rating, Ragweed, Common [5, 25]: 80 | Plant response rating, Ragweed, Common [5, 26]: 90 | Plant response rating, Corn ([6]; Rate 62 g/ha, scale 0 to 100): 0 | Plant response rating, Corn [6, 25]: 0 | Plant response rating, Corn [6, 26]: 0 | Plant response rating, Corn ([6]; scale 0 to 100): 0 | Plant response rating, Crabgrass ([7]; Rate 62 g/ha, scale 0 to 100): 60 | Plant response rating, Crabgrass [7, 25]: 60 | Plant response rating, Crabgrass [7, 26]: 70 | Plant response rating, Foxtail, Giant [8]: 80 | Plant response rating, Goosegrass ([9]; Rate 62 g/ha, scale 0 to 100): 20 | Plant response rating, Goosegrass [9, 25]: 50 | Plant response rating, Goosegrass [9, 26]: 70 | Plant response rating, Johnsongrass ([10]; Rate 62 g/ha, scale 0 to 100): 20 | Plant response rating, Johnsongrass [10, 25]: 30 | Plant response rating, Johnsongrass [10, 26]: 40 | Plant response rating, Johnsongrass ([10]; rate not given, scale 0 to 100): 30 | Plant response rating, Kochia ([11]; Rate 62 g/ha, scale 0 to 100): 10 | Plant response rating, Kochia [11, 25]: 80 | Plant response rating, Kochia [11, 26]: 90 | Plant response rating, Lambsquarters ([12]; Rate 62 g/ha, scale 0 to 100): 70 | Plant response rating, Lambsquarters [12, 26]: 100 | Plant response rating, Morningglory ([13]; Rate 62 g/ha, scale 0 to 100): 70 | Plant response rating, Morningglory [13, 26]: 100 | Plant response rating, Pigweed ([14]; Rate 62 g/ha, scale 0 to 100): 70 | Plant response rating, Pigweed [14, 25]: 70 | Plant response rating, Pigweed [14, 26]: 100 | Plant response rating, Soybean ([15]; Rate 62 g/ha, scale 0 to 100): 90 | Plant response rating, Soybean [15, 25]: 100 | Plant response rating, Soybean [15, 26]: 100 | Plant response rating, Velvetleaf ([16]; Rate 62 g/ha, scale 0 to 100): 50 | Plant response rating, Velvetleaf [16, 25]: 50 | Plant response rating, Velvetleaf [16, 26]: 80 | Plant response rating, Velvetleaf ([16]; scale 0 to 100): 50 | Plant response rating, Cupgrass, Woolly ([17]; Rate 62 g/ha, scale 0 to 100): 30 | Plant response rating, Cupgrass, Woolly [17, 25]: 50 | Plant response rating, Cupgrass, Woolly [17, 26]: 70 | Plant response rating, Nutsedge ([18]; Rate 62 g/ha, scale 0 to 100): 0 | Plant response rating, Nutsedge [18, 25]: 0 | Plant response rating, Nutsedge [18, 26]: 0 | Plant response rating, Surinam grass [19, 24]: 20 | Plant response rating, Surinam grass [19, 27]: 10 | Plant response rating (0 to 100), Surinam grass [19, 28]: 100 | Plant response rating, Surinam grass [19, 29]: 20 | Plant response rating, Corn [20, 24]: 30 | Plant response rating, Corn [20, 27]: 0 | Plant response rating (0 to 100), Corn [20, 28]: 30 | Plant response rating, Corn [20, 29]: 30 | Plant response rating, Kochia [21, 24]: 100 | Plant response rating, Kochia [21, 27]: 100 | Plant response rating (0 to 100), Kochia [21, 28]: 100 | Plant response rating, Kochia [21, 29]: 100 | Plant response rating, Morningglory [22, 24]: 100 | Plant response rating, Morningglory [22, 27]: 30 | Plant response rating (0 to 100), Morningglory [22, 28]: 100 | Plant response rating, Morningglory [22, 29]: 100 | Plant response rating (0 to 100), Sunflower [23]: 100
